Measurements reported in US20200297760A1, “COMPOSITIONS AND METHODS FOR REDUCING IMMUNE RESPONSES AGAINST CHIMERIC ANTIGEN RECEPTORS” (Juno Therapeutics, Inc., priority 2015, published 2020).
No end group written: not given here.

Legend:
Assay in all cases: REVEAL Epitope Discovery System in vitro MHC-peptide binding assay
HLA-B*08:01 = HLA-B*08:01 (Homo sapiens, UniProt P01889, A93T/A95T/D138N/E176V/E187T/K202T/Q94N/R180D/S35A/V36M/Y33D/Y91F); conditions: binding normalized to positive control peptide set at 100%, >50 considered good or high affinity binding
Experimental: (§1) Actual binding affinities for certain HLA class I alleles (A*02:01, A*03:01, A*11:01, and B*08:01) were assessed in vitro for exemplary overlapping 9 amino acid peptide sequences within a portion of the 26 amino acid junction region spanning the CD28 and 4-1BB junction. Specifically, assessment was of a series of overlapping 9-mer peptides derived from the sequence […] (set forth in SEQ ID NO: 7), which contains a portion of the CD28 transmembrane domain and 4-1BB costimulatory domain spanning the junction between the domains (bond joining the two amino acids noted in underline). In addition, a series of overlapping 9-mer peptides of each of a number of different variants of this portion also were assessed, each variant containing a mutation or mutations in this region as described in Example 2.
(§2) The various 9-mer overlapping peptides were synthesized and their purity tested by MALDI-TOF Mass Spectrometry. The synthetic peptides were then incubated with recombinant MHC molecules to assess binding properties using the REVEAL Epitope Discovery System, which is a high-throughput binding assay that measures the degree to which each peptide is able to stabilize a ternary MHC-peptide complex (Prolmmune, Oxford, United Kingdom). Each peptide was separately tested for this ability with respect to each of the HLA class I alleles, normalized to the degree observed for a positive control (known T cell epitope for the relevant allele). The results are reported as a score, in which the binding was normalized to the positive control peptide set at 100%. In this analysis, a score of greater than 50 generally was considered to represent good or high affinity binding.

HLA-A*11:01 = HLA-A*11:01 (Homo sapiens, UniProt P04439, A114D/D185E/E176A/F33Y/L180Q/S129P/T187R); conditions: binding normalized to positive control peptide set at 100%, >50 considered good or high affinity binding
Experimental: as §1, §2

HLA-A*03:01 = HLA-A*03:01 (Homo sapiens, UniProt P04439); conditions: REVEAL score, binding normalized to positive control peptide set at 100%; greater than 50 considered good or high affinity binding
Experimental: as §1, §2

HLA-A*02:01 = HLA-A*02:01 (Homo sapiens, UniProt P04439, D140Y/D185E/D98H/E176V/E277Q/G131W/G231S/I119V/I121R/I166T/I218V/L300P/L318F/N151K/N90K/P208A/P217A/Q86G/Q94H/R138H/R169H/T345S); conditions: binding normalized to positive control peptide set at 100%, greater than 50 considered good or high affinity binding
Experimental: as §1, §2

Molecule	B*08:01 In Vitro Score (HLA-B*08:01)	A*11:01 In Vitro Score (HLA-A*11:01)	A*03:01 In Vitro (HLA-A*03:01)	A*02:01 In Vitro Score (HLA-A*02:01)
FWVQRGAKK	0.00	18.30	2.70	2.20
FIIFWVLRG	0.20	2.40	0.10	7.20
CC[C@H](C)[C@H](N)C(=O)N[C@@H](Cc1ccccc1)C(=O)N[C@@H](Cc1c[nH]c2ccccc12)C(=O)N[C@H](C(=O)N[C@@H](CCCCN)C(=O)N[C@@H](CCCNC(=N)N)C(=O)NCC(=O)N[C@@H](CC(N)=O)C(=O)N[C@@H](CCCCN)C(=O)O)C(C)C	0.10	45.90	8.00	3.50
FIIFWVQRG	0.60	1.50	0.40	16.80
CC[C@H](C)[C@H](N)C(=O)N[C@H](C(=O)N[C@@H](Cc1ccccc1)C(=O)N[C@@H](Cc1c[nH]c2ccccc12)C(=O)N[C@H](C(=O)N[C@@H](CC(C)C)C(=O)N[C@@H](CCCNC(=N)N)C(=O)NCC(=O)N[C@@H](CCCNC(=N)N)C(=O)O)C(C)C)[C@@H](C)CC	0.40	35.20	2.80	8.40
CC(C)[C@H](NC(=O)[C@H](Cc1c[nH]c2ccccc12)NC(=O)[C@@H](N)Cc1ccccc1)C(=O)N[C@@H](C)C(=O)N[C@@H](CCCNC(=N)N)C(=O)NCC(=O)N[C@@H](CCCNC(=N)N)C(=O)N[C@@H](CCCCN)C(=O)N[C@@H](CCCCN)C(=O)O	0.00	8.90	5.00	13.50
CC(C)C[C@H](NC(=O)[C@H](CCCCN)NC(=O)[C@H](CCCCN)NC(=O)[C@H](CCCNC(=N)N)NC(=O)CNC(=O)[C@H](CCCNC(=N)N)NC(=O)[C@H](C)NC(=O)[C@@H](NC(=O)[C@@H](N)Cc1c[nH]c2ccccc12)C(C)C)C(=O)O	32.40	13.80	1.30	8.80
WVQRGNKKA	0.70	0.80	1.20	1.90
IFWVKRGLK	58.30	61.10	26.90	2.40
IIFWVQRGS	0.10	16.90	4.50	22.40
VAFIIFWVL	0.00	0.20	0.00	0.20
FWVKRGAKK	0.30	13.20	4.70	4.30
CC(C)[C@H](NC(=O)[C@@H](N)Cc1c[nH]c2ccccc12)C(=O)N[C@@H](CCC(N)=O)C(=O)N[C@@H](CCCNC(=N)N)C(=O)NCC(=O)N[C@@H](CC(N)=O)C(=O)N[C@@H](CCCCN)C(=O)N[C@@H](CCCCN)C(=O)N[C@@H](CO)C(=O)O	0.00	5.00	0.70	1.20
FWVHRGRKK	0.00	5.60	3.60	1.60
CC(C)[C@H](NC(=O)[C@H](Cc1c[nH]c2ccccc12)NC(=O)[C@@H](N)Cc1ccccc1)C(=O)N[C@@H](CCCCN)C(=O)N[C@@H](CCCNC(=N)N)C(=O)NCC(=O)N[C@@H](CC(N)=O)C(=O)N[C@@H](CCCCN)C(=O)N[C@@H](CCCCN)C(=O)O	0.10	7.30	3.60	8.70
IFWVQRGAK	0.20	61.30	17.00	11.70
IFWVQRGSK	0.00	103.30	20.30	33.50
FWVKRGRKK	0.00	6.50	2.20	3.50

Molecule	B*08:01 In Vitro Score (HLA-B*08:01)	A*11:01 In Vitro Score (HLA-A*11:01)	A*03:01 In Vitro (HLA-A*03:01)	A*02:01 In Vitro Score (HLA-A*02:01)
VAFIIFWVK	0.30	109.20	1.50	0.70
AFIIFWVSR	0.30	54.00	0.30	4.50
WVKRGRKKA	3.10	3.10	0.90	4.50
WVKRGRKKS	4.30	6.70	0.90	3.90
WVQRGNKKL	32.00	10.70	1.50	4.30
CC[C@H](C)[C@H](N)C(=O)N[C@H](C(=O)N[C@@H](Cc1ccccc1)C(=O)N[C@@H](Cc1c[nH]c2ccccc12)C(=O)N[C@H](C(=O)N[C@@H](C)C(=O)N[C@@H](CCCNC(=N)N)C(=O)NCC(=O)N[C@@H](CCCNC(=N)N)C(=O)O)C(C)C)[C@@H](C)CC	0.30	70.60	18.60	9.60
AFIIFWVQR	0.00	15.00	0.20	0.40
WVHRGRKKL	19.20	5.60	3.40	1.60
IFWVLRGRK	0.00	29.30	19.50	2.90
IIFWVQRGA	0.20	56.50	2.70	95.30
IFWVARGRK	0.00	34.90	53.70	1.00
IFWVKRGRK	0.40	29.30	20.50	4.50
CC[C@H](C)[C@H](N)C(=O)N[C@H](C(=O)N[C@@H](Cc1ccccc1)C(=O)N[C@@H](Cc1c[nH]c2ccccc12)C(=O)N[C@H](C(=O)N[C@@H](CCCCN)C(=O)N[C@@H](CCCNC(=N)N)C(=O)NCC(=O)N[C@@H](CO)C(=O)O)C(C)C)[C@@H](C)CC	0.40	100.00	16.20	13.60
FWVKRGHKK	0.40	27.60	4.10	2.60
WVSRGRKKL	6.20	4.40	2.10	2.30
WVKRGNKKL	65.90	4.10	0.90	2.40
CC[C@H](C)[C@H](NC(=O)[C@H](Cc1ccccc1)NC(=O)[C@H](C)N)C(=O)N[C@H](C(=O)N[C@@H](Cc1ccccc1)C(=O)N[C@@H](Cc1c[nH]c2ccccc12)C(=O)N[C@H](C(=O)N[C@@H](CCCNC(=N)N)C(=O)N[C@@H](CCCNC(=N)N)C(=O)O)C(C)C)[C@@H](C)CC	0.30	1.50		1.40
CC(C)C[C@H](NC(=O)[C@H](CCCCN)NC(=O)[C@H](CCCCN)NC(=O)[C@H](CO)NC(=O)CNC(=O)[C@H](CCCNC(=N)N)NC(=O)[C@H](CCC(N)=O)NC(=O)[C@@H](NC(=O)[C@@H](N)Cc1c[nH]c2ccccc12)C(C)C)C(=O)O		5.90	1.20	4.40
